Data reported in patent publication US20080069899A1, “Pharmaceutical Compositions Comprising Beta-Carboline Derivatives and Use Thereof for the Treatment of Cancer” (priority 2004, published 2008).
“And” between values parts separate entries of the source, which are not always exact repeats. Equal values may be shown once. Where a name gives a salt, the structure may show the parent alone. Read-outs that look alike come from different tables or passages of the source.

Columns and labels:
[1] = tested on: K562 (leukemia); assay: in vitro cytotoxicity test (neutral red, 96-well microplate); type: cell-based; settings: Homo sapiens, incubation 4 days
Protocol: (§1) The cytotoxic effects of the different alkaloid extracts of P. harmala were studied on several cell lines: • human leukemia cell lines: K562 and Jurkat (leukemia), U937 (myeloma), • human solid tumor cell lines: KB (epithelioma of the nasopharynx) and HT29 (colon), • immortalized human bone marrow endothelial cell lines: HBMEC.
(§2) The cells are cultured in an oven under a 5% CO2 atmosphere and at 37° C., in RPMI 1640 medium for K562, Jurkat, U937 and HT29 and DMEM for KB, supplemented with 10% foetal calf serum, 0.01% penicillin-streptomycin and L-glutamine 2 mM and in EGM2 medium for the HBMEC cells.
(§3) The cytotoxicity test is carried out in a 96-well microplate in the presence of the extract to be tested at varying concentrations of 40, 20, 10, 5, 1, 0.5 μg/ml and in the absence of product, after incubation for 4 days at 37° C. On the 3rd day, a solution of neutral red is added which is absorbed by living cells. The optical density (OD) of dye released by lyzed cells is measured at 540 nm by an Elisa plate reader. The toxicity (% inhibition of growth) is inversely proportional to the optical density.
(§4) The percentage of inhibition is defined as being the difference between the OD without product and the OD in the presence of product compared to the OD without product.
(§5) The concentration inhibiting 50% of cell growth is obtained from the curve representing the percentage of inhibition as a function of the logarithm of the concentration.

[2] = tested on: U937 (myeloma); assay: as above; type: cell-based; settings: Homo sapiens, U-937, 96 h, incubation 4 days
Protocol: as §1, §2, §3, §4, §5

[3] = tested on: KB (epithelioma of the nasopharynx); assay: as above; type: cell-based; settings: Homo sapiens, 96 h, incubation 4 days
Protocol: as §1, §2, §3, §4, §5

[4] = tested on: HBMEC (immortalized human bone marrow endothelial cell lines); assay: as above; type: cell-based; settings: 96 h, incubation 4 days
Protocol: as §1, §2, §3, §4, §5

[5] = tested on: Jurkat (leukemia); assay: as above; type: cell-based; settings: Homo sapiens, 96 h, incubation 4 days
Protocol: as §1, §2, §3, §4, §5

[6] = tested on: malignant and endothelial cells tested; assay: summary of in vitro cytotoxicity over all lines tested; type: cell-based, human; settings: range over the cell lines, read-out: IC50 vis-à-vis malignant and endothelial cells tested
Protocol: as §1, §2, §3, §4, §5
To summarize, the IC50 vis-à-vis malignant and endothelial cells tested is the following: […]

[7] = tested on: HT29 human colon tumor cells; assay: in vivo antineoplastic activity, NOD-SCID mice xenografted with HT29 human tumour cells
Protocol: (§6) The animal model chosen is that of severe combined immunodeficient (NOD-SCID) mice having received a xenograft of human tumor cells.
(§7) Male and female NOD-SCID mice, more than 3 months old, were raised in an environment of strict sterility, in an insulator ventilated with filtered air and sterilized, at 22° C. and 40% humidity, with a day-12 h/night-12 h cycle. The cages, feeding bottles and the water were sterilized in an autoclave at 120° C. for 30 minutes and the food as well as the bedding were treated with γ-irradiation. All handling took place in aseptic conditions under a laminar flow hood.
The mice were subjected to general anaesthesia by i.p. injection of 0.3 to 0.4 ml of hypnomidate at 2 mg/ml. 1×10^7 HT29 human colon tumor cells in suspension in 200 μl of PBS were then injected sub-cutaneously, into the backs of the mice. […]
50 mg of 5-fluorouracil (Sigma) were dissolved in 8 ml of water and the solution obtained was sterilized by filtration on a membrane with 0.22 μm porosity. […]

[8] = Protocol: as §6, §7
150 mg of cyclophosphamide (Sigma) were dissolved in 8 ml of water and the solution obtained was sterilized by filtration on a membrane with 0.22 μm porosity.
50 mg of 5-fluorouracil (Sigma) were dissolved in 8 ml of water and the solution obtained was sterilized by filtration on a membrane with 0.22 μm porosity.
100 mg of dihydrated harmalacidine hydrochloride were dissolved in 8 ml of water and the solution obtained was sterilized by filtration on a membrane with 0.22 μm porosity. The mice received either 25, 50, or 100 mg/kg/day of harmalacidine alone, or a mixture of 25 or 50 mg/kg/day of harmalacidine+50 mg/kg/day of cyclophosphamide.

Molecule: CC[C@@]1(O)C(=O)OCc2c1cc1n(c2=O)Cc2cc3ccccc3nc2-1 [Camptothecin, reference compound]
- IC50 ([1]; 96 h): 0.014 µg/mL and 40 nM
- IC50 [2]: 0.023 µg/mL and 70 nM
- IC50 [3]: 0.035 µg/mL and 100 nM
- IC50 [4]: 0.025 µg/mL and 70 nM
- IC50 [5]: 0.003 µg/mL and 90 nM

Molecule: dihydrated harmalacidine hydrochloride
- IC50 [6]: 34.4 to 134 µM

Molecule: CC[C@]1(O)C[C@@H]2CN(CCc3c([nH]c4ccccc34)[C@@](C(=O)OC)(c3cc4c(cc3OC)N(C)[C@H]3[C@@](O)(C(=O)OC)[C@H](OC(C)=O)[C@]5(CC)C=CCN6CC[C@]43[C@@H]65)C2)C1 [vinblastine, reference compound]
- antineoplastic activity ([7]; vinblastine between 0.125 and 0.5 mg/kg/day, sub-cutaneous administration, until the 40th day): dose-dependent
- tolerance of the dose ([8]; mouse, in vivo): not tolerated

Molecule: O=P1(N(CCCl)CCCl)NCCCO1 (centres unmarked) [cyclophosphamide]
- Average volume of the tumours of the treated mice compared to the average volume of the tumours of the non-treated mice (T/C) (%) ([7]; cyclophosphamide 50 mg/kg/day alone, Day 15): 63%
- Average volume of the tumours of the treated mice compared to the average volume of the tumours of the non-treated mice (T/C) (%) ([7]; cyclophosphamide 50 mg/kg/day alone, Day 30): 42%
- Average volume of the tumours of the treated mice compared to the average volume of the tumours of the non-treated mice (T/C) (%) ([7]; cyclophosphamide 50 mg/kg/day alone, Day 40): 37%
- Average volume of the tumours of the treated mice compared to the average volume of the tumours of the non-treated mice (T/C) (%) ([7]; cyclophosphamide 50 mg/kg/day alone, Day 50): 36%
- Average volume of the tumours of the treated mice compared to the average volume of the tumours of the non-treated mice (T/C) (%) ([7]; cyclophosphamide 50 mg/kg/day alone, Day 60): 32%
- Average volume of the tumours of the treated mice compared to the average volume of the tumours of the non-treated mice (T/C) (%) ([7]; cyclophosphamide 100 mg/kg/day alone, Day 15): 47%
- Average volume of the tumours of the treated mice compared to the average volume of the tumours of the non-treated mice (T/C) (%) ([7]; cyclophosphamide 100 mg/kg/day alone, Day 30): 25%
- Average volume of the tumours of the treated mice compared to the average volume of the tumours of the non-treated mice (T/C) (%) ([7]; cyclophosphamide 100 mg/kg/day alone, Day 40): 18%
- Average volume of the tumours of the treated mice compared to the average volume of the tumours of the non-treated mice (T/C) (%) ([7]; cyclophosphamide 100 mg/kg/day alone, Day 50): 14%
- Average volume of the tumours of the treated mice compared to the average volume of the tumours of the non-treated mice (T/C) (%) ([7]; cyclophosphamide 100 mg/kg/day alone, Day 60): 15%
- Average volume of the tumours of the treated mice compared to the average volume of the tumours of the non-treated mice (T/C) (%) ([7]; cyclophosphamide 150 mg/kg/day alone, Day 15): 4%
- tolerance of the dose ([8]; cyclophosphamide 150 mg/kg/day alone, all died around the 15th day of treatment): did not tolerate

Molecule: COc1ccc2c(c1)[nH]c1c(C)nccc12 [Harmine•HCl•2H2O, dihydrated harmine hydrochloride]
- IC50 ([6]; hydrochloride): 10.5 to 35 µM

Molecule: OC1CCN2Cc3ccccc3N=C12 (centres unmarked) [Peganine (B), Peganine]
- IC50 ([1]; K562, 96 h): 35 µg/mL and 186 µM
- IC50 [3]: > 50 µg/mL and > 266 µM
- IC50 [5]: 75 µg/mL and 399 µM

Molecule: O=c1[nH]cc(F)c(=O)[nH]1 [5-fluorouracil]
- Average volume of the tumours of the treated mice compared to the average volume of the tumours of the non-treated mice (T/C) (%) ([7]; 5-fluorouracil 3 mg/kg/day alone per os, Day 15): 43%
- Average volume of the tumours of the treated mice compared to the average volume of the tumours of the non-treated mice (T/C) (%) ([7]; 5-fluorouracil 3 mg/kg/day alone per os, Day 30): 56%
- Average volume of the tumours of the treated mice compared to the average volume of the tumours of the non-treated mice (T/C) (%) ([7]; 5-fluorouracil 3 mg/kg/day alone per os, Day 40): 66%
- Average volume of the tumours of the treated mice compared to the average volume of the tumours of the non-treated mice (T/C) (%) ([7]; 5-fluorouracil 3 mg/kg/day alone per os, Day 50): 61%
- Average volume of the tumours of the treated mice compared to the average volume of the tumours of the non-treated mice (T/C) (%) ([7]; 5-fluorouracil 3 mg/kg/day alone per os, Day 60): 86%
- Average volume of the tumours of the treated mice compared to the average volume of the tumours of the non-treated mice (T/C) (%) ([7]; 5-fluorouracil 6 mg/kg/day alone per os, Day 15): 37%
- Average volume of the tumours of the treated mice compared to the average volume of the tumours of the non-treated mice (T/C) (%) ([7]; 5-fluorouracil 6 mg/kg/day alone per os, Day 30): 53%
- Average volume of the tumours of the treated mice compared to the average volume of the tumours of the non-treated mice (T/C) (%) ([7]; 5-fluorouracil 6 mg/kg/day alone per os, Day 40): 60%
- Average volume of the tumours of the treated mice compared to the average volume of the tumours of the non-treated mice (T/C) (%) ([7]; 5-fluorouracil 6 mg/kg/day alone per os, Day 50): 64%
- Average volume of the tumours of the treated mice compared to the average volume of the tumours of the non-treated mice (T/C) (%) ([7]; 5-fluorouracil 6 mg/kg/day alone per os, Day 60): 70%
- Average volume of the tumours of the treated mice compared to the average volume of the tumours of the non-treated mice (T/C) (%) ([7]; 5-fluorouracil 9 mg/kg/day alone per os, Day 15): 41%
- Average volume of the tumours of the treated mice compared to the average volume of the tumours of the non-treated mice (T/C) (%) ([7]; 5-fluorouracil 9 mg/kg/day alone per os, Day 30): 41%
- Average volume of the tumours of the treated mice compared to the average volume of the tumours of the non-treated mice (T/C) (%) ([7]; 5-fluorouracil 9 mg/kg/day alone per os, Day 40): 59%
- Average volume of the tumours of the treated mice compared to the average volume of the tumours of the non-treated mice (T/C) (%) ([7]; 5-fluorouracil 9 mg/kg/day alone per os, Day 50): 52%
- Average volume of the tumours of the treated mice compared to the average volume of the tumours of the non-treated mice (T/C) (%) ([7]; 5-fluorouracil 9 mg/kg/day alone per os, Day 60): 59%
- Average volume of the tumours of the treated mice compared to the average volume of the tumours of the non-treated mice (T/C) (%) ([7]; 5-fluorouracil 12 mg/kg/day alone per os, Day 15): 73%
- Average volume of the tumours of the treated mice compared to the average volume of the tumours of the non-treated mice (T/C) (%) ([7]; 5-fluorouracil 12 mg/kg/day alone per os, Day 30): 66%
- Average volume of the tumours of the treated mice compared to the average volume of the tumours of the non-treated mice (T/C) (%) ([7]; 5-fluorouracil 12 mg/kg/day alone per os, Day 40): 54%
- Average volume of the tumours of the treated mice compared to the average volume of the tumours of the non-treated mice (T/C) (%) ([7]; 5-fluorouracil 12 mg/kg/day alone per os, Day 50): 47%
- Average volume of the tumours of the treated mice compared to the average volume of the tumours of the non-treated mice (T/C) (%) ([7]; 5-fluorouracil 12 mg/kg/day alone per os, Day 60): 59%
- T/C ([7]; 5-fluorouracil 24 mg/kg/d, alternating 6 days of treatment and 6 days of rest, until the 20th day of the treatment): 17%
- Average volume of the tumours of the treated mice compared to the average volume of the tumours of the non-treated mice (T/C) (%) ([7]; 5-fluorouracil 24 mg/kg/day alone, alternating 6 days of treatment and 6 days of rest, Day 15): 17%
- Average volume of the tumours of the treated mice compared to the average volume of the tumours of the non-treated mice (T/C) (%) ([7]; 5-fluorouracil 24 mg/kg/day alone, alternating 6 days of treatment and 6 days of rest, Day 30): 54%
- Average volume of the tumours of the treated mice compared to the average volume of the tumours of the non-treated mice (T/C) (%) ([7]; 5-fluorouracil 24 mg/kg/day alone, alternating 6 days of treatment and 6 days of rest, Day 40): 54%
- day of administration at which the dose becomes lethal ([8]; both, NOD-SCID, mouse, in vivo): 35 to 45 days

Molecule: O=C1NCCc2c1[nH]c1cc(O)ccc21 [Demethyl-harmalacidine (D), demethyl harmalacidine]
- IC50 ([1]; K562, 96 h): 20 µg/mL and 99 µM
- IC50 [3]: 10 µg/mL and 49.5 µM
- IC50 [4]: 17 µg/mL and 84.1 µM
- IC50 [5]: 8.5 µg/mL and 42 µM
